These molecules were tested against T1, human FSH receptor (Homo sapiens, UniProt P23945) (assay: hFSHRago (CHO luc): agonistic activity at the human FSH receptor expressed in CHO cells, CRE-luciferase reporter). Details: CHO cells stably transfected with human FSH receptor and CRE/luciferase reporter; 4 hours of incubation.
T1 construct: expressed in transfected cells
T1 sequence (P23945 18-695): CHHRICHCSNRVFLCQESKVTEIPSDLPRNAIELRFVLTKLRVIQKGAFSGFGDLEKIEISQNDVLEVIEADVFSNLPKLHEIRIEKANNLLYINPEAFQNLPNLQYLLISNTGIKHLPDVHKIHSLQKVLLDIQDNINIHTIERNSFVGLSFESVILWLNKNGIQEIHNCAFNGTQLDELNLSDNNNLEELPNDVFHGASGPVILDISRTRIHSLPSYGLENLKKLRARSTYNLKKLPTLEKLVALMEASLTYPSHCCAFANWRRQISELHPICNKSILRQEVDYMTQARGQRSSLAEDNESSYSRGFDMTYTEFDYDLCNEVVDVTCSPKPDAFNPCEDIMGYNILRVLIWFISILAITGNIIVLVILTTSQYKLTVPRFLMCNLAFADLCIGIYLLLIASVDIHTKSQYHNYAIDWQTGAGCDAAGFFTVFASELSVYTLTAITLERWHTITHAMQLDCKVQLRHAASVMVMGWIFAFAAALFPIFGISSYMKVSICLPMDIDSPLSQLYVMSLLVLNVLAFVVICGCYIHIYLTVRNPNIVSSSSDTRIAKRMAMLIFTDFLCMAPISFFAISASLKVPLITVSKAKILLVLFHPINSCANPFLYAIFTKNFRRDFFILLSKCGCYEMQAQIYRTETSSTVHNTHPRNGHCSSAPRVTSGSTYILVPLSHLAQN
Assay type: cell-based
Description: The term EC50 means the concentration of the test compound that elicits half-maximal (50%) stimulation compared to the compound's maximally attainable effect. The values can be determined e.g. in a cell line transfected with a FSH receptor gene and cotransfected with a cAMP responsive element/promoter directing the expression of a reporter gene. Values can be determined using the software program such as MathIQ (version 2.0, ID Business Solutions Limited).
Agonistic activity of the compounds at the human FSH receptor was determined in Chinese Hamster Ovary (CHO) cells stably transfected with the human FSH receptor and cotransfected with a cAMP responsive element (CRE)/promoter directing the expression of a firefly luciferase reporter gene. […] Cells (7,500 cells/well of a 384 well plate) were incubated in Dulbecco' minimal essential F12 modified medium (Invitrogen), supplemented with 1 μg/ml bovine insulin, 5 μg/ml human apo-transferrin, 80 U/ml penicillin G and 80 μg/ml streptomycin with the test compounds (concentration between 0.0316 nM and 10.0 μM) in duplicate in a humidified atmosphere (95%) at 5-7% CO2 and 37° C. The final concentration of DMSO was 1%. After 4 hours of incubation, plates were allowed to adjust to room temperature for 1 hour. Then, Luclite (PerkinElmer) solution was added to the wells and cells were allowed to lyse for at least 1 hour at room temperature. Subsequently, luciferase activity was measured in a luminescence counter. The signal is expressed as counts per second (cps). The EC50 (concentration of the test compound that elicits half-maximal (50%) luciferase stimulation compared to the compound's maximally attainable effect) and efficacy values (maximal effect of the test compound as percentage of the maximal effect of recombinant human FSH) of the compounds were determined using the software program MathIQ (version 2.0, ID Business Solutions Limited).

Going from COc1cc2c(cc1OC(C)C)-c1c(-c3cccs3)cc(C(=O)C(C)N(C)C)n1CC2 (stereo not drawn) [Example 47, 2-Dimethylamino-1-(9-isopropoxy-8-methoxy-1-thiophen-2-yl-5,6-dihydro-pyrrolo[2,1-α]isoquinolin-3-yl)-propan-1-one] to COc1cc2c(cc1OC(C)C)-c1c(-c3cccs3)cc(C(=O)C(C)N3CCOCC3)n1CC2 (stereo not drawn) [Example 48, 1-(9-Isopropoxy-8-methoxy-1-thiophen-2-yl-5,6-dihydro-pyrrolo[2,1-α]isoquinolin-3-yl)-2-morpholin-4-yl-propan-1-one], the EC50 falls from 149 nM to 89.4 nM (1.7-fold).

Compared with COc1cc2c(cc1OC(C)C)-c1c(-c3cccs3)cc(C(=O)C(C)N3CCCN(C(C)=O)CC3)n1CC2 (stereo not drawn) [Example 49, 2-(4-Acetyl-[1,4]diazepan-1-yl)-1-(9-isopropoxy-8-methoxy-1-thiophen-2-yl-5,6-dihydro-pyrrolo[2,1-α]isoquinolin-3-yl)-propan-1-one], COc1cc2c(cc1N1CCN(C(C)=O)CC1)-c1c(-c3cccs3)cc(C(=O)N(C)C(C)(C)C)n1CC2 [Example 53, 9-(4-Acetyl-piperazin-1-yl)-8-methoxy-1-thiophen-2-yl-5,6-dihydro-pyrrolo[2,1-α]isoquinoline-3-carboxylic acid tert-butyl-methyl-amide] is 3.4-fold higher in EC50: 200 nM for the first, 678 nM for the second.

Going from COc1cc2c(cc1OC(C)C)-c1c(C3CCCC3)cc(C(=O)NC(C)(C)C)n1CC2 [Example 50, 1-Cyclopentyl-9-isopropoxy-8-methoxy-5,6-dihydro-pyrrolo[2,1-α]isoquinoline-3-tert-butylamide] to COc1cc2c(cc1OC1CCCCO1)-c1c(-c3cccs3)cc(C(=O)N(C)C(C)(C)C)n1CC2 (stereo not drawn) [Example 69, 8-Methoxy-9-(tetrahydro-pyran-2-yloxy)-1-thiophen-2-yl-5,6-dihydro-pyrrolo[2,1-α]isoquinoline-3-carboxylic acid tert-butyl-methyl-amide], the EC50 falls from 220 nM to 6.9 nM (32-fold).

COc1cc2c(cc1NC(C)C)-c1c(-c3cccs3)cc(C(=O)N(C)C(C)(C)C)n1CC2 [Example 51, 9-Isopropylamino-8-methoxy-1-thiophen-2-yl-5,6-dihydro-pyrrolo[2,1-α]isoquinoline-3-carboxylic acid tert-butyl-methyl-amide] and COc1cc2c(cc1CC(C)C)-c1c(-c3cccs3)cc(C(=O)N(C)C(C)(C)C)n1CC2 [Example 58c, 9-Isobutyl-8-methoxy-1-thiophen-2-yl-5,6-dihydro-pyrrolo[2,1-α]isoquinoline-3-carboxylic acid tert-butyl-methyl-amide] are within 1.5-fold of each other in EC50: 4.2 nM for the first, 4.3 nM for the second.

Going from COc1cc2c(cc1O)-c1c(-c3cccs3)cc(C(=O)N(C)C(C)(C)C)n1CC2 [Example 52, 9-Hydroxy-8-methoxy-1-thiophen-2-yl-5,6-dihydro-pyrrolo[2,1-α]isoquinoline-3-carboxylic acid tert-butyl-methyl-amide] to COc1cc2c(cc1C=C(C)C)-c1c(-c3cccs3)cc(C(=O)N(C)C(C)(C)C)n1CC2 [Example 58b, 8-Methoxy-9-(2-methyl-propenyl)-1-thiophen-2-yl-5,6-dihydro-pyrrolo[2,1-α]isoquinoline-3-carboxylic acid tert-butyl-methyl-amide], the EC50 falls from 356 nM to 0.7 nM (510-fold). The second is the more potent here.

First: COc1cc2c(cc1N1CCN(C)CC1)-c1c(-c3cccs3)cc(C(=O)N(C)C(C)(C)C)n1CC2 [Example 54, 8-Methoxy-9-(4-methyl-piperazin-1-yl)-1-thiophen-2-yl-5,6-dihydro-pyrrolo[2,1-α]isoquinoline-3-carboxylic acid tert-butyl-methyl-amide]
Second: COc1cc2c(cc1N1CCOCC1)-c1c(-c3cccs3)cc(C(=O)N(C)C(C)(C)C)n1CC2 [Example 56, 8-Methoxy-9-morpholin-4-yl-1-thiophen-2-yl-5,6-dihydro-pyrrolo[2,1-α]isoquinoline-3-carboxylic acid tert-butyl-methyl-amide]
The EC50 of the first is 29-fold higher: 455 nM for the first, 15.7 nM for the second.

COc1cc2c(cc1-c1cn[nH]c1)-c1c(-c3cccs3)cc(C(=O)N(C)C(C)(C)C)n1CC2 [Example 55, 8-Methoxy-9-(1H-pyrazol-4-yl)-1-thiophen-2-yl-5,6-dihydro-pyrrolo[2,1-α]isoquinoline-3-carboxylic acid tert-butyl-methyl-amide] and COc1cc2c(cc1OCCO)-c1c(-c3cccs3)cc(C(=O)N(C)C(C)(C)C)n1CC2 [Example 65d, 9-(2-Hydroxy-ethoxy)-8-methoxy-1-thiophen-2-yl-5,6-dihydro-pyrrolo[2,1-α]iso-quinoline-3-carboxylic acid tert-butyl-methyl-amide] are within 1.5-fold of each other in EC50: 1.1 nM for the first, 1.3 nM for the second.

Going from COc1cc2c(cc1N1CCOCC1)-c1c(-c3cccnc3)cc(C(=O)N(C)C(C)(C)C)n1CC2 [Example 57, 8-Methoxy-9-morpholin-4-yl-1-pyridin-3-yl-5,6-dihydro-pyrrolo[2,1-α]isoquinoline-3-carboxylic acid tert-butyl-methyl-amide; trifluoro acetic acid] to COc1cc2c(cc1C=C(C)C)-c1c(-c3nccs3)cc(C(=O)N(C)C(C)(C)C)n1CC2 [Example 59, 8-Methoxy-9-(2-methyl-propenyl)-1-thiazol-2-yl-5,6-dihydro-pyrrolo[2,1-α]isoquinoline-3-carboxylic acid tert-butyl-methyl-amide], the EC50 falls from 276 nM to 2.6 nM (110-fold).

First: COc1cc2c(cc1CC(C)C)-c1c(-c3nccs3)cc(C(=O)N(C)C(C)(C)C)n1CC2 [Example 60, 9-Isobutyl-8-methoxy-1-thiazol-2-yl-5,6-dihydro-pyrrolo[2,1-α]isoquinoline-3-carboxylic acid tert-butyl-methyl-amide]
Second: CC(C)Cc1cc2c(cc1O)CCn1c(C(=O)N(C)C(C)(C)C)cc(-c3cccs3)c1-2 [Example 61, 8-Hydroxy-9-isobutyl-1-thiophen-2-yl-5,6-dihydro-pyrrolo[2,1-α]isoquinoline-3-carboxylic acid tert-butyl-methyl-amide]
The EC50 of the first is 3.7-fold higher: 19 nM for the first, 5.2 nM for the second. The second is the more potent here.

COc1cc2c(cc1NC(=O)C(C)C)-c1c(-c3cccs3)cc(C(=O)N3CCCC3(C)C)n1CC2 [Example 62, N-[3-(2,2-Dimethyl-pyrrolidine-1-carbonyl)-8-methoxy-1-thiophen-2-yl-5,6-dihydro-pyrrolo[2,1-α]isoquinolin-9-yl]-isobutyramide] and CNC(=O)COc1cc2c(cc1OC)CCn1c(C(=O)N(C)C(C)(C)C)cc(-c3cccs3)c1-2 [Example 64, 8-Methoxy-9-methylcarbamoylmethoxy-1-thiophen-2-yl-5,6-dihydro-pyrrolo[2,1-α]isoquinoline-3-carboxylic acid tert-butyl-methyl-amide] are within 1.5-fold of each other in EC50: 3.7 nM for the first, 3.1 nM for the second.

First: CCOC(=O)COc1cc2c(cc1OC)CCn1c(C(=O)N(C)C(C)(C)C)cc(-c3cccs3)c1-2 [Example 63, [3-(tert-Butyl-methyl-carbamoyl)-8-methoxy-1-thiophen-2-yl-5,6-dihydro-pyrrolo[2,1-α]isoquinolin-9-yloxy]-acetic acid ethyl ester]
Second: COc1cc2c(cc1OCCNC(C)=O)-c1c(-c3cccs3)cc(C(=O)N(C)C(C)(C)C)n1CC2 [Example 67, 9-(2-Acetylamino-ethoxy)-8-methoxy-1-thiophen-2-yl-5,6-dihydro-pyrrolo[2,1-α]isoquinoline-3-carboxylic acid tert-butyl-methyl-amide]
The EC50 of the first is 6.9-fold higher: 252 nM for the first, 36.5 nM for the second.

Compared with COc1cc2c(cc1OCCOC1CCCCO1)-c1c(-c3cccs3)cc(C(=O)N(C)C(C)(C)C)n1CC2 (stereo not drawn) [Example 65c, 8-Methoxy-9-[2-(tetrahydro-pyran-2-yloxy)-ethoxy]-1-thiophen-2-yl-5,6-dihydro-pyrrolo[2,1-α]isoquinoline-3-carboxylic acid tert-butyl-methyl-amide], COc1cc2c(cc1OCCOS(C)(=O)=O)-c1c(-c3cccs3)cc(C(=O)N(C)C(C)(C)C)n1CC2 [Example 65e, Methanesulfonic acid 2-[3-(tert-butyl-methyl-carbamoyl)-8-methoxy-1-thiophen-2-yl-5,6-dihydro-pyrrolo[2,1-α]isoquinolin-9-yloxy]-ethyl ester] is 6.8-fold lower in EC50: 102 nM for the first, 15 nM for the second.

Going from COc1cc2c(cc1OCCN=[N+]=[N-])-c1c(-c3cccs3)cc(C(=O)N(C)C(C)(C)C)n1CC2 [Example 65f, 9-(2-Azido-ethoxy)-8-methoxy-1-thiophen-2-yl-5,6-dihydro-pyrrolo[2,1-α]isoquinoline-3-carboxylic acid tert-butyl-methyl-amide] to COc1cc2c(cc1OCCNS(C)(=O)=O)-c1c(-c3cccs3)cc(C(=O)N(C)C(C)(C)C)n1CC2 [Example 68, 9-(2-Methanesulfonylamino-ethoxy)-8-methoxy-1-thiophen-2-yl-5,6-dihydro-pyrrolo[2,1-α]isoquinoline-3-carboxylic acid tert-butyl-methyl-amide], the EC50 rises from 7.1 nM to 16 nM (2.3-fold).

In the case of COC(=O)NCCOc1cc2c(cc1OC)CCn1c(C(=O)N(C)C(C)(C)C)cc(-c3cccs3)c1-2 [Example 66, {2-[3-(tert-Butyl-methyl-carbamoyl)-8-methoxy-1-thiophen-2-yl-5,6-dihydro-pyrrolo[2,1-α]isoquinolin-9-yloxy]-ethyl}-carbamic acid methyl ester], the EC50 is reported as 31.3 nM.
